In patent US7968595B2, “Substituted 4-aryl-chromene as activator of caspases and inducer of apoptosis and as antivascular agent and the use thereof” (Cytovia, Inc., priority 2006, dated 2011):

Columns and labels:
HCT116 = assay: Inhibition of cell proliferation (GI50), HCT116; type: cell-based; details: Homo sapiens, HCT-116; HCT116 cells, 72 h, CellTiter-Glo
Procedure: (§1) Human breast cancer cells MX-1 and MDAMB435, hepatocarcinoma cells SNU398, colon cancer cells HCT116 and HeLa cells were grown and harvested as in Example 7. An aliquot of […] of cells (4.4×10^4 cells/mL) was added to a well of a 96-well microtiter plate containing 5 μL of a 10% DMSO in RPMI-1640 media solution containing 10 nM to 100 μM of R(−)-2,7,8-triamino-4-(3-bromo-4,5-dimethoxy-phenyl)-3-cyano-4H-chromene (1 nM to 10 μM final). An aliquot of 45 μL of cells was added to a well of a 96-well microtiter plate containing 5 μL of a 10% DMSO in RPMI-1640 media solution without compound as the control sample for maximal cell proliferation (LMax). The samples were mixed by agitation and then incubated at 37° C. for 72 h in a 5% CO2−95% humidity incubator. After incubation, the samples were removed from the incubator and 25 μL of CellTiter-Glo™ reagent (Promega) was added. The samples were mixed by agitation and incubated at room temperature for 10-15 min. Plates were then read using a luminescent plate reader (Model SPECTRAfluor Plus, Tecan) to give Ltest values.
(§2) Baseline for GI50 (dose for 50% inhibition of cell proliferation) of initial cell numbers was determined by adding an aliquot of 45 μL of cells or 45 μL of media, respectively, to wells of a 96-well microtiter plate containing 5 μL of a 10% DMSO in RPMI-1640 media solution. […]

HUVEC cells = assay: HUVEC tube disruption assay; type: cell-based
Procedure: Aliquots of Matrigel basement membrane matrix (300 μl, BD Biosciences, Mississauga, Ontario, Canada) were added to each well of 24-well plates (Fisher Scientific Ltd, Nepean, Ontario, Canada) and allowed to incubate for 1 h at 37° C. HUVEC cells (3×10^4) were added per well in EGM-2 and incubated for 4 h at 37° C. in a 5% CO2 atmosphere to allow the cells to form tube-like structures. Compound 1R was diluted in DMSO to its respective concentrations, added to cells, and allowed to incubate for 1 h at 37° C. in a 5% CO2 atmosphere. Following the incubation, the medium was gently aspirated and fresh EGM-2 was added and cells were further incubated for 24 h. Miroscopy images were recorded with a Zeiss LSM 510 confocal microscope (Zeiss Canada Ltd, Toronto, Ontario, Canada). The effect of compound 1R on capillary tube disruption was evaluated by light microscopy (×40 magnification) and the results are summarized in Table III.

HeLa cells = assay: Inhibition of cell proliferation (GI50), HeLa; type: cell-based; details: Homo sapiens, 72 h, CellTiter-Glo
Procedure: as §1, §2

[1] = test system: MX1 human breast cancer tumors; assay: In vivo antitumor activity in MX-1 model, combination with cisplatin and doxorubicin; parameters: species or system mice; details: 1R 40 mg/kg, IV
Procedure: MX1 human breast cancer tumors were obtained from the NCI-FCRDC and maintained as tumors in nude mice. Tumor bits were implanted with a trocar into the right mammary area of female nu/nu mice and allowed to grow to an average size of 200-250 mg, about 12 days after being implanted. Animals were randomized and assigned to study groups of 8-10 animals/group. Body weight were determined and tumor size were measured by calipers and converted to volume by the standard formula of Vol=L×W^2/2. Compound 1R was formulated in 7% PEG400/9% Tween80/84% D5W and administered IV via the tail vein at the indicated days and doses. Day 1 of the study was the first day of treatment. Survival time was the number of days for the tumor to reach 1000 mg or death, whichever occurred earliest. Median survival is the median for the group.
Mice implanted with MX1 human breast cancer tumors were treated with compound 1R as described in EXAMPLE 11. Cisplatin was administered IP whereas doxorubicin was administered IV at the indicated doses.

[2] = day 1, 2, 3 (QD × 3), first study (cisplatin day 2)
[3] = day 1, 8, 15 (QW × 3), second study (cisplatin day 2, 9)
[4] = day 1, 8, 15 (QW × 3), third study (doxorubicin)

## COc1cc([C@H]2C(C#N)=C(N)Oc3c2ccc(N)c3N)cc(Br)c1OC [Compound 1R, R(−)-2,7,8-triamino-4-(3-bromo-4,5-dimethoxy-phenyl)-3-cyano-4H-chromene]
HCT116
  GI50: 19 nM
HUVEC cells; 3.3 nM
  Tube formation % inhibition: No inhibition
HUVEC cells; HUVEC tubes
  Lowest concentration that inhibited tube formation: 10 nM
HUVEC cells; Homo sapiens, HUVEC, 10 nM, read-out: Tube formation % inhibition
  inhibition at 0.01 µM: 75%
HUVEC cells; Homo sapiens, HUVEC, 30 nM, read-out: Tube formation % inhibition
  inhibition at 0.03 µM: 100%
HUVEC cells; Homo sapiens, HUVEC, 100 nM, read-out: Tube formation % inhibition
  inhibition at 0.1 µM: 100%
HeLa cells
  GI50: 25 nM
[1]; [2]
  Median survival: 38.5 days
  Number of tumor free mice at day 91: 4 of 9
[1]; [3]
  Median survival: 35 days
  Number of tumor free mice at day 91: 1 of 7
[1]; [4]
  Median survival: 40 days
  Number of tumor free mice at day 91: 1 of 8
